These results are taken from patent US20050170485A1, “Culture having phenol oxidase-like activity” (priority 2002, published 2005).

Holding throughout (type): biochemical
Assay [1] has as its system culture of Flammulina velutipes strain IFO 30601. Put plainly: Direct oxidation reaction by the culture. Particulars: for activity of the culture compared with bilirubin oxidase from the genus Myrothecium, direct oxidation / activity of the culture compared with laccase from Japanese lacquer, direct oxidation: pH 7.0, relative activities of Table 7; for Relative Activity, Culture (direct oxidation): reaction pH 7.0, 2-chloro 1,4-phenylenediamine = 100; for activity of the culture for the substrate in words, direct oxidation reaction: pH 7.0. The protocol:
Further, the direct oxidation reaction of the culture obtained in the above-mentioned example was determined by using color development due to oxidative polymerization of a substrate generated by the direct action of the culture of the present invention on the substrate as an index.
As the substrates, there were used diaminophenolic compounds (2-chloro 1,4-phenylenediamine, p-phenylenediamine, 2,5-diaminotoluene, N-phenyl-p-phenylenediamine, toluylene-3,4-diamine, m-phenylenediamine), aminophenolic compounds (o-aminophenol, m-aminophenol, 5-amino-o-cresol, p-aminophenol, p-methylaminophenol), and phenolic compounds (2,6-dimethoxyphenol, catechol, resorcinol, hydroquinone, pyrogallol, gallic acid, propyl gallate, 1-naphthol, […], 2,3,4-trihydroxybenzophenone, 2,3,4,4-tetrahydroxybenzophenone). As to a substrate hardly soluble in water, there was used one obtained by dissolving the substrate in a small amount of dimethyl sulfoxide and diluting the resulting solution with deionized distilled water to a desired concentration. In Table 6, %” indicates volume/volume %.
(§1) Concretely, 180 μl of 0.89 mM sodium phosphate buffer (pH 7.0) containing […] substrate was pre-incubated in wells of a 96-well microplate [manufactured by Corning, Costor (registered trademark) 3368] at 25° C. for 1 minute. Next, 20 μl of the above-mentioned culture solution was added to the resulting mixture. A change in absorbance at 490 nm, 450 nm or 405 nm was determined for the resulting product, depending on the substrate. Here, 1 U (unit) of the activity regarding the direct oxidative reaction was defined as an amount for increasing the absorbance by 1 per one minute.

Assay [2] has as its system laccase from Japanese lacquer. The assay can be described thus: Direct oxidation reaction by laccase (comparison). The following applies: reaction pH 7.0; 2-chloro 1,4-phenylenediamine = 100. As for the experimental part: Next, 20 μl of the above-mentioned culture solution was added to the resulting mixture. A change in absorbance at 490 nm, 450 nm or 405 nm was determined for the resulting product, depending on the substrate. Here, 1 U (unit) of the activity regarding the direct oxidative reaction was defined as an amount for increasing the absorbance by 1 per one minute.
(§2) In addition, for the comparison, the substrate specificities at pH 7.0 for laccase from Japanese lacquer and bilirubin oxidase from the strain belonging to the genus Myrothecium were also examined in the same manner.

For assay [3], the target named is T1, bilirubin oxidase from the strain belonging to the genus Myrothecium (Albifimbria verrucaria, UniProt Q12737).
T1 sequence (Q12737 39-572): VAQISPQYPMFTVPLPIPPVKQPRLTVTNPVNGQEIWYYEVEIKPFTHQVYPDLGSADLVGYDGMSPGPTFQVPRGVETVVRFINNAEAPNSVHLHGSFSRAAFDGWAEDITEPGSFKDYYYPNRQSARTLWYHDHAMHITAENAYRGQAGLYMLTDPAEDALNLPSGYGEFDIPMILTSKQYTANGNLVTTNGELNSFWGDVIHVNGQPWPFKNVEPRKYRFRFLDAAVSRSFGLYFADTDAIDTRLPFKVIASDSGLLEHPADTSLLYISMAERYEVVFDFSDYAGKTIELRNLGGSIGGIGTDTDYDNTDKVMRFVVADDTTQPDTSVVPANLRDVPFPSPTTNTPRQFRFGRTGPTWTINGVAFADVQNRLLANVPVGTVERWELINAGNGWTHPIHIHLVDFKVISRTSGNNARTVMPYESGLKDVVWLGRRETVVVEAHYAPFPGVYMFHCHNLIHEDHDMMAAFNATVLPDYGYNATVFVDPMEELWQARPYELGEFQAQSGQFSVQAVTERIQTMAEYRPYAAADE
Put plainly: Direct oxidation reaction by bilirubin oxidase (comparison). The arrangement: concentration or dose not given beside the values. Particulars: reaction pH 7.0; 2-chloro 1,4-phenylenediamine = 100. The protocol:
as §1, §2
The relative activity (%) for each substrate is shown in Table 7, in which the measured value for a case where a representative chemical dye 2-chloro 1,4-phenylenediamine was used as a substrate is 100.

Assay [4] concerns culture of Flammulina velutipes strain IFO 30601. Put plainly: Oxidative coupling reaction with 4-aminoantipyrine by the culture. Particulars: for Specific Activity, Culture (oxidative coupling with 4-aminoantipyrine): reaction pH 7.0, 25° C., substrate 2.0 mM; for activity of the culture for the substrate in words, oxidative coupling reaction: pH 7.0. The protocol: Next, the oxidative coupling reaction of the culture obtained in (2) in Example 1 mentioned above was determined by using color development as an index by the oxidative condensation of the substrate (hydrogen donor) with 4-aminoantipyrine, catalyzed by the culture of the present invention.
As the hydrogen donors, there were used phenolic compounds (phenol, 2-methoxyphenol, 2,6-dimethoxyphenol, catechol, resorcinol, hydroquinone, pyrogallol, gallic acid, propyl gallate, 1-naphthol, catechin), aminophenolic compounds (o-aminophenol, m-aminophenol, p-aminophenol), diaminophenolic compounds (o-phenylenediamine, m-phenylenediamine, p-phenylenediamine), and heterocyclic compounds (5-hydroxyindole, 2,6-diaminopyridine).
The above-mentioned culture solution was added to a reaction system containing 4-aminoantipyrine and an optional hydrogen donor. Thereafter, the activity of the culture of the present invention was assayed by determining a change in absorbance at 490 nm for the phenolic compound, the diaminophenolic compound and the heterocyclic compound, or determining a change in absorbance at 450 nm for the aminophenolic compound. As to a substrate hardly soluble in water, there was used one obtained by dissolving the substrate in a small amount of dimethyl sulfoxide and diluting the resulting solution with deionized water to a desired concentration. In Table 4, DMSO is an abbreviation for dimethyl sulfoxide.
(§3) Concretely, 190 μl of 105.3 mM phosphate buffer (pH 7.0) containing 0.4 μmol of a substrate and 4.0 μmol of 4-aminoantipyrine was pre-incubated in wells of a 96-well microplate [manufactured by Corning, Costor (registered trademark) 3368] at 25° C. for 1 minute. Next, 10 μl of the above-mentioned culture solution was added to the resulting mixture, and thereafter, the mixture was incubated for 1 hour. A change in absorbance at 490 nm or 450 nm was determined for the resulting product. One unit (U) of the activity regarding the oxidative coupling reaction was defined as an amount for increasing the absorbance by 1 per one minute.

Assay [5] concerns the target T2, bilirubin oxidase from the strain of the genus Myrothecium (Albifimbria verrucaria, UniProt Q12737).
T2 sequence (Q12737 39-572): T1 sequence (Q12737 39-572)
The assay can be described thus: Oxidative coupling reaction with 4-aminoantipyrine by bilirubin oxidase (comparison). Particulars: reaction pH 8.0, substrate 2.0 mM. As for the experimental part: as §3
In addition, for the comparison, the examination was made in the same manner for bilirubin oxidase from the strain of the genus Myrothecium except that the above-mentioned buffer was replaced with 105.3 mM Tris-HCl buffer (pH 8.0).

Regarding `Cc1ccc(N)cc1O` [5-Amino-o-cresol], in assay [1], the “activity of the culture compared with bilirubin oxidase from the genus Myrothecium, direct oxidation” value is “even higher activity”; the “activity of the culture compared with laccase from Japanese lacquer, direct oxidation” value is given as “even higher activity”; the “Relative Activity, Culture (direct oxidation)” value (“Relative Activity, Culture” for short) was determined as 117%. For the same compound, the “Relative Activity, Laccase from Japanese Lacquer (direct oxidation)” value (“Relative Activity, Laccase” for short) in assay [2] was 1%. Moreover, the “Relative Activity, Bilirubin Oxidase from Strain Belonging to Genus Myrothecium (direct oxidation)” value (“Relative Activity, Bilirubin Oxidase” for short) in assay [3] was found to be 19%.

Regarding `Oc1ccc(O)cc1` [Hydroquinone], the “Specific Activity, Culture (oxidative coupling with 4-aminoantipyrine)” value (“Specific Activity, Culture” for short) in assay [4] was 2.1 U/mg Protein. For the same compound, the “Specific Activity, Bilirubin Oxidase from Strain Belonging to Genus Myrothecium (oxidative coupling with 4-aminoantipyrine)” value (shortened to “Specific Activity, Bilirubin Oxidase”) in assay [5] is on record as 0.5 U/mg Protein. Further, in assay [1], the “activity of the culture compared with bilirubin oxidase from the genus Myrothecium, direct oxidation” value was “even higher activity”; the “activity of the culture compared with laccase from Japanese lacquer, direct oxidation” value is recorded as “even higher activity”; the “Relative Activity, Culture” value came out at 20%. Besides, in assay [2], the “Relative Activity, Laccase” value is 2%. Besides, the “Relative Activity, Bilirubin Oxidase” value in assay [3] was determined as 4%.

As to `O=C(c1ccc(O)cc1)c1ccc(O)c(O)c1O` [2,3,4,4-Tetrahydroxybenzophenone], in assay [1], the “activity of the culture for the substrate in words, direct oxidation reaction” value (“activity … direct oxidation reaction” below) is given as “high activity”; the “activity of the culture compared with bilirubin oxidase from the genus Myrothecium, direct oxidation” value was “even higher activity”; the “activity of the culture compared with laccase from Japanese lacquer, direct oxidation” value is given as “higher activity”; the “Relative Activity, Culture” value turned out to be 571%. The “activity … direct oxidation reaction” value in assay [1] (listed as 2,3,4,4-tetrahydrobenzophenone) is given as “especially high activity”. Besides, in assay [2], the “Relative Activity, Laccase” value amounted to 179%. In addition, the “Relative Activity, Bilirubin Oxidase” value in assay [3] was 52%.

Take `Oc1ccc2[nH]ccc2c1` [5-Hydroxyindole]: the “Specific Activity, Culture” value in assay [4] stood at 4.7 U/mg Protein. The “Specific Activity, Bilirubin Oxidase” value in assay [5] is recorded as 1.9 U/mg Protein.

As to `Oc1ccccc1` [Phenol], the “Specific Activity, Culture” value in assay [4] amounted to 8.1 U/mg Protein. Also, in assay [5], the “Specific Activity, Bilirubin Oxidase” value turned out to be 0.9 U/mg Protein.

With `Nc1cccc(N)c1` [m-Phenylenediamine], the “Specific Activity, Culture” value in assay [4] is on record as 29.7 U/mg Protein. Further, the “Specific Activity, Bilirubin Oxidase” value in assay [5] was 1.7 U/mg Protein. Moreover, in assay [1], the “activity of the culture compared with laccase from Japanese lacquer, direct oxidation” value is given as “even higher activity” and the “Relative Activity, Culture” value is recorded as 26%. For the same compound, the “Relative Activity, Laccase” value in assay [2] is 4%. Also, the “Relative Activity, Bilirubin Oxidase” value in assay [3] was 14%.

On to `Nc1ccccc1N` [o-Phenylenediamine], for which the “Specific Activity, Culture” value in assay [4] came to 15.1 U/mg Protein. Besides, the “Specific Activity, Bilirubin Oxidase” value in assay [5] amounted to 4.5 U/mg Protein.

As for `Nc1ccc(N)c(Cl)c1` [2-Chloro 1,4-phenylenediamine], the “Relative Activity, Culture” value in assay [1] was determined as 100%. Further, the “Relative Activity, Laccase” value in assay [2] amounted to 100%. Further, in assay [3], the “Relative Activity, Bilirubin Oxidase” value came out at 100%.

Turning to `CNc1ccc(O)cc1` [p-Methylaminophenol], in assay [1], the “activity … direct oxidation reaction” value is “especially high activity”; the “activity of the culture compared with bilirubin oxidase from the genus Myrothecium, direct oxidation” value is recorded as “higher activity”; the “Relative Activity, Culture” value is given as 304%. Also, the “Relative Activity, Laccase” value in assay [2] was determined as 308%. For the same compound, the “Relative Activity, Bilirubin Oxidase” value in assay [3] was 122%.

For the compound `Cc1ccc(N)c(N)c1` [Toluylene-3,4-diamine], in assay [1], the “activity of the culture compared with bilirubin oxidase from the genus Myrothecium, direct oxidation” value is on record as “higher activity” and the “Relative Activity, Culture” value is reported as 120%. In addition, the “Relative Activity, Laccase” value in assay [2] is reported as 61%. Also, the “Relative Activity, Bilirubin Oxidase” value in assay [3] turned out to be 45%.

`O=C(c1ccccc1)c1ccc(O)c(O)c1O` [2,3,4-Trihydroxybenzophenone]: in assay [1], the “activity … direct oxidation reaction” value is “especially high activity”; the “activity of the culture compared with bilirubin oxidase from the genus Myrothecium, direct oxidation” value is “even higher activity”; the “activity of the culture compared with laccase from Japanese lacquer, direct oxidation” value was “higher activity”; the “Relative Activity, Culture” value stood at 537%. Besides, the “Relative Activity, Laccase” value in assay [2] was 175%. In addition, in assay [3], the “Relative Activity, Bilirubin Oxidase” value turned out to be 62%.

With `Nc1ccc(Nc2ccccc2)cc1` [N-Phenyl-p-phenylenediamine], in assay [1], the “activity … direct oxidation reaction” value was “especially high activity” and the “Relative Activity, Culture” value worked out at 174%. In assay [2], the “Relative Activity, Laccase” value is reported as 94%. The “Relative Activity, Bilirubin Oxidase” value in assay [3] turned out to be 102%.

Take `C1=CCC2=CC=CCC2=C1` [1,5-Dihydronaphthalene]: the “Relative Activity, Culture” value in assay [1] was 63%. For the same compound, the “Relative Activity, Laccase” value in assay [2] is 47%. The “Relative Activity, Bilirubin Oxidase” value in assay [3] was determined as 69%.

`Cc1cc(N)ccc1N` [2,5-Diaminotoluene]: in assay [1], the “activity of the culture compared with bilirubin oxidase from the genus Myrothecium, direct oxidation” value is “higher activity” and the “Relative Activity, Culture” value was found to be 80%. Besides, the “Relative Activity, Laccase” value in assay [2] worked out at 44%. The “Relative Activity, Bilirubin Oxidase” value in assay [3] turned out to be 24%.

Turning to `Nc1cccc(N)n1` [2,6-Diaminopyridine], in assay [4], the “activity of the culture for the substrate in words, oxidative coupling reaction” value is given as “high activity” and the “Specific Activity, Culture” value worked out at 37.7 U/mg Protein. For the same compound, the “Specific Activity, Bilirubin Oxidase” value in assay [5] was found to be 2.3 U/mg Protein.

As for Catechin, in assay [4], the “activity of the culture for the substrate in words, oxidative coupling reaction” value is reported as “especially high activity” and the “Specific Activity, Culture” value is 14.0 U/mg Protein. For the same compound, in assay [5], the “Specific Activity, Bilirubin Oxidase” value is on record as 4.6 U/mg Protein.
